Data: US6525001B1, “Substituted pyrimidine and pyridine herbicides” (Mid-American Commercialization Corporation, priority 1997, dated 2003)

Legend:
Assay in all cases: Test E pre-/postemergence/post directed
Assay type in all cases: in vivo
Set-up in all cases: key: 0 is no effect; 100 is complete control
[1] = tested on: tall mallow (Malva sylvestris); conditions: PREEMERGENCE
From the text: (§1) Seeds, tubers, or plant parts of alexandergrass (Brachiaria plantaginea), annual bluegrass (Poa annua), arrowleaf sida (Sida rhombifolia), barnyardgrass (Echinochloa crus-galli), bermudagrass (Cynodon dactylon), citrus (Citrus sinensis), common chickweed (Stellaria media), common purslane (Portulaca oleracea), common ragweed (Ambrosia elatior), common groundsel (Senecio vulgaris), dallisgrass (Paspalum dilatatum), goosegrass (Eleusine indica), green foxtail (Setaria viridis), guineagrass (Panicum maximum), itchgrass (Rottboellia exaltata), johnson grass (Sorghum halepense), kochia (Kochia scoparia), large crabgrass (Digitaria sanguinalis), leafy spurge (Euphorbia esula), pitted morningglory (Ipomoea lacunosa), purple nutsedge (Cyperus rotundus), quackgrass (Agropyron repens), Russian thistle (Salsola kali), sandbur (Cenchrus echinatus), sourgrass (Trichachne insularis), Spanishneedles (Bidens bipinnata), sugarcane (Saccharum officinarum), surinam grass (Brachiaria decumbens) and tall mallow (Malva sylvestris) were planted into greenhouse pots of flats containing greenhouse planting medium. Plant species were grown grown in separate pots or individual compartments. Preemergence applications were made within one day of planting the seed or plant part. Postemergence applications were applied when the plants were in the two to four leaf stage (three to twenty cm).
(§2) Test chemicals were formulated in a non-phytotoxic solvent mixture which included a surfactant and applied preemergence to the soil surface, postemergence to the plants or as a post directed spray to plants and soil at the base of the target species. Untreated control plants and treated plants were placed in the greenhouse and visually evaluated for injury 13 to 21 days after herbicide application. Plant response ratings, summarized in Table E, are based on a 0 to 100 scale where 0 is no injury and 100 is complete control. A dash (−) response means no test result.

[2] = tested on: dallisgrass (Paspalum dilatatum); conditions: PREEMERGENCE
From the text: as §1, §2

[3] = tested on: common purslane (Portulaca oleracea); conditions: PREEMERGENCE
From the text: as §1, §2

[4] = tested on: guineagrass (Panicum maximum); conditions: PREEMERGENCE
From the text: as §1, §2

[5] = tested on: common groundsel (Senecio vulgaris); conditions: PREEMERGENCE, Rate 250 g/ha
From the text: as §1, §2

[6] = tested on: sourgrass (Trichachne insularis); conditions: PREEMERGENCE
From the text: as §1, §2

[7] = tested on: large crabgrass (Digitaria sanguinalis); conditions: PREEMERGENCE, Rate 250 g/ha
From the text: as §1, §2

[8] = tested on: common ragweed (Ambrosia elatior); conditions: PREEMERGENCE
From the text: as §1, §2

[9] = tested on: bermudagrass (Cynodon dactylon); conditions: PREEMERGENCE, Rate 250 g/ha
From the text: as §1, §2

[10] = tested on: surinam grass (Brachiaria decumbens); conditions: PREEMERGENCE, Rate 250 g/ha
From the text: as §1, §2

[11] = tested on: goosegrass (Eleusine indica); conditions: PREEMERGENCE
From the text: as §1, §2

Cc1cnc(-n2cnc(C(F)(F)F)n2)nc1C(=O)c1cccc(C(F)(F)F)c1 [Compound 67]
Plant response rating, Tall Mallow ([1]; Rate 32 g/ha): 80 | Plant response rating, Tall Mallow ([1]; Rate 64 g/ha): 90 | Plant response rating, Tall Mallow ([1]; Rate 125 g/ha): 90 | Plant response rating, Tall Mallow ([1]; Rate 250 g/ha): 98 | Plant response rating, Dallisgrass ([2]; Rate 32 g/ha): 40 | Plant response rating, Dallisgrass ([2]; Rate 64 g/ha): 70 | Plant response rating, Dallisgrass ([2]; Rate 125 g/ha): 80 | Plant response rating, Dallisgrass ([2]; Rate 250 g/ha): 100 | Plant response rating, Com. purslane ([3]; Rate 32 g/ha): 80 | Plant response rating, Com. purslane ([3]; Rate 64 g/ha): 100 | Plant response rating, Com. purslane ([3]; Rate 125 g/ha): 100 | Plant response rating, Com. purslane ([3]; Rate 250 g/ha): 100 | Plant response rating, Guineagrass ([4]; Rate 32 g/ha): 80 | Plant response rating, Guineagrass ([4]; Rate 64 g/ha): 100 | Plant response rating, Guineagrass ([4]; Rate 125 g/ha): 100 | Plant response rating, Guineagrass ([4]; Rate 250 g/ha): 100 | Plant response rating, Com. groundsel [5]: 100 | Plant response rating, Sourgrass ([6]; Rate 32 g/ha): 98 | Plant response rating, Sourgrass ([6]; Rate 64 g/ha): 100 | Plant response rating, Sourgrass ([6]; Rate 125 g/ha): 100 | Plant response rating, Sourgrass ([6]; Rate 250 g/ha): 100 | Plant response rating, Large crabgrass [7]: 100 | Plant response rating, Com. ragweed ([8]; Rate 125 g/ha): 100 | Plant response rating, Com. ragweed ([8]; Rate 250 g/ha): 100 | Plant response rating, Bermudagrass [9]: 100 | Plant response rating, Surinam grass [10]: 100 | Plant response rating, Goosegrass ([11]; Rate 32 g/ha): 80 | Plant response rating, Goosegrass ([11]; Rate 64 g/ha): 90 | Plant response rating, Goosegrass ([11]; Rate 125 g/ha): 100 | Plant response rating, Goosegrass ([11]; Rate 250 g/ha): 100
